Patent publication US20060079497A1, “Lavendamycin analogues and methods of synthesizing and using lavendamycin analogues” (Ball State University, priority 2004, published 2006)
Values joined by “and” are separate entries in the source; they are usually repeats but may differ in a detail not shown here. Equal values may be shown once. Read-outs that look alike come from different tables or passages of the source.

Tests used:
[1] = molecular target: T1, HIV reverse transcriptase (HIV-RT) (Human immunodeficiency virus type 1 group M subtype B, UniProt P04585); assay: HIV-RT assay (3H-TTP incorporation, modified assay of Okada et al.); assay type: biochemical
T1 construct: 1 unit/mL of HIV-RT (Worthington Biochemical Corp., Freehold, N.J.); purchased Worthington Biochemical Corp., Freehold, N.J
Description: Briefly, the analogues were initially dissolved in either DMSO or HEPES buffer (pH 7.2) and then diluted to the appropriate concentration before addition to the assay mixtures. […] Several control wells without any inhibitors were also included on each microtiter plate. The reactions were allowed to proceed for 1 h at 37° C. […] A more detailed description of reaction conditions is provided below in the Examples. The concentration of drug which inhibited 50% of the enzyme activity (IC50) was determined by using the computer software program Calcusyn, which plots the dose-effect curves from the inhibition data and calculates the IC50 for each drug.
(§1) The assay procedure described below is adapted from Okada et al. (Okada, H.; Mukai, H.; Inouye, Y; Nakamura, S. “Biological Properties of Streptonigrin Derivatives II. Inhibition of Reverse Transcriptase Activity,” J. Antibiot., 1986, 39, 306-308). The lavendamycin analogs were initially dissolved in DMSO at a concentration of 1 mg/mL. Occasionally, mild sonication and heat were used to dissolve the less soluble compounds. The dissolved analogs were then serially diluted in distilled water to achieve concentrations in the final reaction mixture ranging from 0.5-15 μM. In addition to the lavendamycin analogs, the final reaction mixture contained 100 mM Tris-HCl (pH 8.0), 5 mM MgCl2, 5 mM dithiothreitol, 60 mM NaCl, 0.2 mM [^3H] thymidine triphosphate(5 μCi well), 4 μg/mL poly (rA)-oligo(dT)12-18 (Amersham Pharmacia Biotech, Piscataway, N.J.) and 1 unit/mL of HIV-RT (Worthington Biochemical Corp., Freehold, N.J.) in a total volume of 300 μL. For each assay, the reaction mixture containing 8× buffer, double distilled H2O, ^3HTTP, template-primer and HIV-RT was pre-mixed in a 15-mL sterile tube in quantities required for the particular experiment. After adding the enzyme, the reaction mixture was mixed and kept on ice. The inhibitors, either AZT(Moravek Biochemicals, Brea, Calif.), analogs or both were added to appropriate wells in a 24 well microtiter plate and ddH2O was added to each well to bring the volume of all test wells to 100 μL. Two hundred μL of the chilled reaction mixture was then added to each of the test wells, mixed, and incubated for 1 hr at 37° C. Several control wells with no inhibitors were included on each test plate. After stopping the reactions with 25 μL 0.1 M EDTA, triplicate samples of 15 μL from each test well were spotted on DE81 ion exchange filter paper squares (Whatman Paper, Maidstone, England). After drying, each filter was washed for 10 minutes three times with 5% TCA-NHPO4, three times with 0.6M NaCl-[…] Na Citrate, one time with ddH2O and one time with 95% ethanol. After drying the individual filter papers were added to 5 mL Scintiverse E (Fisher Scientific, Chicago, Ill.) scintillation fluid and the amount of 3H-TTP uptake measured as counts per minute on a Beckman liquid scintillation counter. […] The results were then analyzed using Calcusyn, a windows software program for dose effect analysis designed by T. -C. Chou and M. P. Hayball and published by Biosoft® (UK).

HIV-RT = molecular target: T2, HIV-RT (Human immunodeficiency virus type 1 group M subtype B, UniProt P04585); assay: Two drug combination of AZT-TP and analogues at constant molar ratios in HIV-RT assay (CI and dose reduction index); assay type: biochemical
T2 construct: 1 unit/mL of HIV-RT (Worthington Biochemical Corp., Freehold, N.J.); purchased Worthington Biochemical Corp., Freehold, N.J
Description: In order to derive the dose reduction index of several of these compounds the method of Chou and Talalay was again employed using the classic isobologram technique. This method also involves the plotting of dose-effect curves for each agent as well as for multiply diluted fixed-ratio combinations of the agents.
The dose reduction index is a measure of how much the dose of each drug in a synergistic combination may be reduced at a given effect level compared with the doses of each drug alone.
as §1

[2] = Water solubility in HEPES buffer solution; assay type: physicochemical
BALB/c mice = assay: In vivo toxicity of analogue 19 in BALB/c mice; parameters: species or system mouse
Description: Analogue 19 was first solubilized in 10% dry DMSO, diluted in water, and given to the mice intraperitoneally in one dose or in two doses per day. Mice were weighed and observed for 3 days following treatment.

tumor = assay: Antitumor activity (applicant's earlier studies)
[3] = 50% inhibition of HIV RT activity toward 1 unit of enzyme, read-out: Mean IC50 ± SEM (no. of expts)
[4] = Mean IC50 ± SEM (no. of expts), 50% inhibition of HIV RT activity toward 1 unit of enzyme

SMILES | IC50 [1, 3] | IC50 ([1]; read-out: IC50 against HIV-RT) | dose reduction in combination with AZT-TP (HIV-RT) | CI at HIV-RT Inhibition of 50% (HIV-RT; molar ratio AZT:analogue 1:600) | CI at HIV-RT Inhibition of 70% (HIV-RT; molar ratio AZT:analogue 1:600) | Dose Reduction Index (50%) AZT-TP (HIV-RT; molar ratio AZT:analogue 1:600) | Dose Reduction Index (50%) analogue (HIV-RT; molar ratio AZT:analogue 1:600) | Water solubility [2] | CI at HIV-RT Inhibition of 50% (HIV-RT; molar ratio AZT:analogue 1:857) | CI at HIV-RT Inhibition of 70% (HIV-RT; molar ratio AZT:analogue 1:857) | Dose Reduction Index (50%) AZT-TP (HIV-RT; molar ratio AZT:analogue 1:857) | Dose Reduction Index (50%) analogue (HIV-RT; molar ratio AZT:analogue 1:857) | antitumor activity (tumor) | IC50 [1, 4] | other results
CCCCCCCCOC(=O)c1cc2c([nH]c3ccccc32)c(-c2ccc3c(n2)C(=O)C(N)=CC3=O)n1 [Compound 20, Demethyllavendamycin n-Octyl Ester] | 7.1 ± 2.7 µM | < 8 µM | considerable dose reduction | 0.49 ± 0.17 | 0.40 ± .09 | 2.4 | 13.7 | – | – | – | – | – | – | – | CI at HIV-RT Inhibition of 50% (HIV-RT; molar ratio AZT:analogue 1:214): 0.46 ± 0.11; CI at HIV-RT Inhibition of 70% (HIV-RT; molar ratio AZT:analogue 1:214): 0.56 ± 0.22; Dose Reduction Index (50%) AZT-TP (HIV-RT; molar ratio AZT:analogue 1:214): 4.08; Dose Reduction Index (50%) analogue (HIV-RT; molar ratio AZT:analogue 1:214): 4.63
CC(=O)NC1=CC(=O)c2ccc(-c3nc(C(=O)OCCOP(=O)(O)O)cc4c3[nH]c3ccccc34)nc2C1=O [Compound 19] | – | – | considerable dose reduction | <0.1 ± 0.10 | <0.1 ± 0.16 | >100 | >100 | 0.05 mg/1 mL | <0.1 ± 0.15 | 0.21 ± 0.18 | >40 | >15 | – | – | inhibition at 15 µM ([1]; 15 μM): > 92%; IC50 ([1]; IC50 against HIV-RT): < 8 µM and 3 µM; survival and tolerability (BALB/c mice; 50 mg/kg as one ip injection): survived and tolerated; survival and tolerability (BALB/c mice; 75 mg/kg ip in two injections within twenty-four hours): survived and tolerated
CC(=O)NC1=CC(=O)c2ccc(-c3nc(C(N)=O)cc4c3[nH]c3ccccc34)nc2C1=O [Compound 16, 7-N-Acetyldemethyllavendamycin Amide] | – | – | – | – | – | – | – | – | – | – | – | – | highly active antitumor agents | 12.7 ± 5.2 µM | –
CCCCOC(=O)c1cc2c([nH]c3ccccc32)c(-c2ccc3c(n2)C(=O)C(NC(=O)CCC)=CC3=O)n1 [Compound 12, 7-N-n-Butyryidemethyllavendamycin n-Butyl Ester] | 5.8 ± 1.5 µM | < 8 µM | considerable dose reduction | 0.45 ± 0.06 | 0.32 ± 0.08 | 3.0 | 8.2 | – | 0.39 ± 0.06 | 0.32 ± 0.09 | 3.9 | 7.3 | – | – | –
COC(=O)c1nc(-c2ccc3c(n2)C(=O)C(NC(C)=O)=CC3=O)c2[nH]c3ccccc3c2c1C [Compound 11, 7-acetyllavendamycin methyl ester] | – | – | – | – | – | – | – | – | – | – | – | – | highly active antitumor agents | 15.1 ± 5.9 µM | –
CC(=O)NC1=CC(=O)c2ccc(-c3nc(C(=O)O)cc4c3[nH]c3ccccc34)nc2C1=O [Compound 18, 7-N-Acetyldemethyllavendamycin] | – | – | considerable dose reduction | – | 1.35 ± 0.64 | 1.5 | 2.6 | 0.05 mg/1 L | – | 1.7 ± 1.49 | 1.7 | 2.0 | – | 13.3 ± 4.4 µM | –
